For assay [1], the target named is Mitogen-activated protein kinase 14 (Homo sapiens, UniProt Q16539). Description: Inhibition of human recombinant full-length N-terminal GST-tagged p38alpha expressed in Escherichia coli by radiometric kinase assay.
Assay [2] concerns the target Serine/threonine-protein kinase B-raf (Homo sapiens, UniProt P15056).
Description: Inhibition of human recombinant full-length GST-tagged B-Raf by radiometric kinase assay
In assay [3] the target is Tyrosine-protein kinase ABL1 (Mus musculus, UniProt P00520).
Description: Inhibition of mouse recombinant N-terminal His6-tagged Abl by radiometric kinase assay

For orientation: IC50 means the concentration that inhibits the measured activity by half.

Structures are written as SMILES.

Mitogen-activated protein kinase 14, sequence (Q16539 whole entry): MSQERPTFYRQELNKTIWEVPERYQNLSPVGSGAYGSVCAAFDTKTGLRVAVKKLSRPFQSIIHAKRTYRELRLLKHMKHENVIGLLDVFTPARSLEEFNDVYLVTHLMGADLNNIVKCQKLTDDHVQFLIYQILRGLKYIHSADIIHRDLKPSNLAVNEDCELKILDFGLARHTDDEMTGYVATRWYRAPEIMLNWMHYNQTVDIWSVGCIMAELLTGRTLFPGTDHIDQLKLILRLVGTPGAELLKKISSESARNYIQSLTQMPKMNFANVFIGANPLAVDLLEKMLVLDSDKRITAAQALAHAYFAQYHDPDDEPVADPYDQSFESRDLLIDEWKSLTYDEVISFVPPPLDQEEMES
Serine/threonine-protein kinase B-raf, sequence (P15056 whole entry): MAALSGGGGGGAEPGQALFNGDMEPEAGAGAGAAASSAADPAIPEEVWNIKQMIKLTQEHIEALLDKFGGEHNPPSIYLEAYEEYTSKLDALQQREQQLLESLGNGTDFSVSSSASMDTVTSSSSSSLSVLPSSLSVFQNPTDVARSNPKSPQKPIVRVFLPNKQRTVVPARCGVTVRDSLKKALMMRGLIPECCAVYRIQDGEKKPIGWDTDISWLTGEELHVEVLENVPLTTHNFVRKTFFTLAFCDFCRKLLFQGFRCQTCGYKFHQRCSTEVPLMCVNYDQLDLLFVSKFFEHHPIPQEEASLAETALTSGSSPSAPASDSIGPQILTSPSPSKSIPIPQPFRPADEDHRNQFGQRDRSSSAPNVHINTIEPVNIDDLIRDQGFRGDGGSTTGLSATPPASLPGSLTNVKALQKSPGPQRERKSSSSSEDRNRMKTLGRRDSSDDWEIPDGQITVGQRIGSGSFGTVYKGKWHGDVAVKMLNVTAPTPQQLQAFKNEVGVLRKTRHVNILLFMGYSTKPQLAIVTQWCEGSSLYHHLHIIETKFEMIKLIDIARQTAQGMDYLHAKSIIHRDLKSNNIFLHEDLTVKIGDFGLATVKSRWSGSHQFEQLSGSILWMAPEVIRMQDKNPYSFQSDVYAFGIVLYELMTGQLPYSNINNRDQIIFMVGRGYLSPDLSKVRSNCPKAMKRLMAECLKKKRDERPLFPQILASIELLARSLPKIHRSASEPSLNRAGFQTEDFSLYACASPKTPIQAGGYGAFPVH
Tyrosine-protein kinase ABL1, sequence (P00520 whole entry): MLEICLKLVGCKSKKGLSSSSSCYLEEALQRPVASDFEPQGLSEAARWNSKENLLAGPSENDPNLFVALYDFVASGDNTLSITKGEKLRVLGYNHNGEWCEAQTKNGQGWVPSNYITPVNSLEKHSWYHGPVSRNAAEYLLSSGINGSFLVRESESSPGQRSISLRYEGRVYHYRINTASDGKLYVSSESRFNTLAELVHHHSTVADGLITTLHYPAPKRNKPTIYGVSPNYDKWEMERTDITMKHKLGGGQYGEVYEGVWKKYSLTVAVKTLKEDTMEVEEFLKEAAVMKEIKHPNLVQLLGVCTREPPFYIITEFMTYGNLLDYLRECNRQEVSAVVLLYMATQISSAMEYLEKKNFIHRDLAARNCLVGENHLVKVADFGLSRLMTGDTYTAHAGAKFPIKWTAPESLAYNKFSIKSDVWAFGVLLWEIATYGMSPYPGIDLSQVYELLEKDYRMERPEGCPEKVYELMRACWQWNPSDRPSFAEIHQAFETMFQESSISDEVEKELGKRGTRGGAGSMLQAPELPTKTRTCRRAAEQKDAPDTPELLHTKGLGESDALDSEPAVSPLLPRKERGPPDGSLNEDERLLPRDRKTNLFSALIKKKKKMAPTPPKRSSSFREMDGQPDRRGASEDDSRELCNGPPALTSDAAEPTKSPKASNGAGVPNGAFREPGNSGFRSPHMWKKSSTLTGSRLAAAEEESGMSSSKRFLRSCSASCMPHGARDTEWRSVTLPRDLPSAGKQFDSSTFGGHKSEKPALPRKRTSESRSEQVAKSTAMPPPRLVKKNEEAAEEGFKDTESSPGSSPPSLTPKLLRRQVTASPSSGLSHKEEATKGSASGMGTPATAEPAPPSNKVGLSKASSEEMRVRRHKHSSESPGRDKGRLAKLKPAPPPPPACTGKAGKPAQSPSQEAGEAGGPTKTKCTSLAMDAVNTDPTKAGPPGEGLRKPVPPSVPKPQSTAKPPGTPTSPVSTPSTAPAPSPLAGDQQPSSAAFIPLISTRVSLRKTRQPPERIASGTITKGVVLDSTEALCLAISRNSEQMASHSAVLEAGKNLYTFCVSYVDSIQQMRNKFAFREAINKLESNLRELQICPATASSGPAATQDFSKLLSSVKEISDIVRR

As to `CNC(=O)c1cc(Oc2ccc(NC(=O)c3ccc(CN4CCN(C)CC4)cc3)cc2)ccn1`, the IC50 in assay [1] was more than 100000 nM; in assay [2], more than 100000 nM; in assay [3], more than 30000 nM.
Turning to `CN1CCN(Cc2ccc(C(=O)Nc3ccc(OCCN4CCOCC4)c4ccccc34)cc2)CC1`, the IC50 is more than 100000 nM in assay [1], more than 100000 nM in assay [2] and more than 30000 nM in assay [3].
As to `Cc1ccc(NC(=O)Nc2ccc(Cl)c(C(F)(F)F)c2)cc1Nc1nccc(-c2cccnc2)n1`, the results for the IC50 in assay [1], in assay [2] and in assay [3] were 18.4 nM, 180 nM and less than 1 nM, respectively.
With `O=C(Nc1ccc(Cl)c(C(F)(F)F)c1)Nc1ccc(OCCN2CCOCC2)c2ccccc12`, the IC50 in assay [2] was less than 1 nM; in assay [3] it was 12900 nM.
Take `Cc1ccc(-n2nc(C(C)(C)C)cc2NC(=O)Nc2ccc(C)c(Nc3nccc(-c4cccnc4)n3)c2)cc1`: the IC50 in assay [1] came out at 189 nM; in assay [2], 414 nM; in assay [3] it was 8.6 nM.
In the case of `CNC(=O)c1cc(Oc2ccc(NC(=O)Nc3cc(C(C)(C)C)nn3-c3ccc(C)cc3)cc2)ccn1`, the results for the IC50 in assay [2] and in assay [3] were 237 nM and 62.6 nM, respectively.
Turning to `CNC(=O)c1cc(Oc2ccc(NC(=O)Nc3ccc(CN4CCN(C)CC4)cc3)cc2)ccn1`, the IC50 was more than 100000 nM in assay [1], more than 100000 nM in assay [2] and 572 nM in assay [3].
Take `O=C(Nc1ccc(OCCN2CCOCC2)cc1)Nc1ccc(Cl)c(C(F)(F)F)c1`: the IC50 in assay [1] turned out to be 105 nM; in assay [2], 92.3 nM; in assay [3] it was 244 nM.

Values taken from ChEMBL document CHEMBL1212849, “The design, synthesis, and evaluation of 8 hybrid DFG-out allosteric kinase inhibitors: a structural analysis of the binding interactions of Gleevec, Nexavar, and BIRB-796” (Bioorg Med Chem, 2010).
